{"source": "patent US20150010644A1", "about": "“OXYGENATION OF THE MUCOSAL BARRIER BY ENTERAL ARTIFICIAL BLOOD TO PREVENT HYPOXIC BREAKDOWN OF THE MUCOSAL BARRIER” (THE REGENTS OF THE UNIVERSITY OF CALIFORNIA, priority 2011, published 2015)", "key": {"[1]": {"system": "trypsin activity in the intestinal wall", "assay": "In-situ zymography for trypsin activity in jejunal cryosections, rat splanchnic arterial occlusion (SAO) model", "type": "in vivo", "conditions": "lumenal injection 30 min prior", "protocol": "(§1) Male Wistar rats (250-300 g, Harlan Sprague Dawley Inc, Indianapolis, Ind.) were randomly assigned to each group (n=4 per group). Rats were kept on solid food restriction for 12 hours prior to surgery with water ad libitum. […] Sham groups were treated the same with the arteries separated but not ligated.\nControl groups: Animals with saline injection into the lumen of the intestine, 3 ml/100 g Body Weight (BW), 30 min prior to SHAM or SAO surgery.\n(§2) Perfluorocarbon groups: Perfluorodecalin (PFC) (Sigma-Aldrich, St Louis, Mo.) with oxygen, previously bubbled into the solution for 10 min, was injected into the lumen of the intestine 30 min prior SHAM or SAO surgery (SHAM+PFC+O2, SAO+PFC+O2). PFC without oxygen bubbled into the solution was injected 30 min prior SHAM or SAO surgery (SHAM+PFC, SAO+PFC).\nATP-MgCl2 groups: ATP-MgCl2 (Sigma-Aldrich), 25 mg/kg BW was injected in the lumen of the intestine 30 min prior to SHAM or SAO surgery (SHAM+ATP, SAO+ATP). […]\nAfter 30 min SAO or sham surgery, the animals were euthanized (Beuthanasia®; 0.22 ml/kg BW, IV).\n(§3) Tissue cryosections: After euthanasia, jejunal sections (˜1 cm in length) were excised without removal of lumenal contents and suspended in Tissue-Tek O.C.T. Compound (Sakura Finetek, Torrance, Calif.), snap frozen in isopentane/liquid nitrogen, and stored at −80° C. for analysis. Cryosections (5 μm thickness) along the longitudinal axis of the villi were used throughout all experiments. Cryosections were fixed in 10% formalin solution and processed in a non-blinded fashion.\nIn-situ tissue zymography: In-situ zymography for trypsin activity in cryosections was assessed by measurement of fluorescence resulting from the proteolytic cleavage of the substrate (1 mM, Na-benzoyl-L-arginine-7-amido-methylcoumarin hydrochloride; Sigma-Aldrich) as described elsewhere with propidium iodine counterstaining (Sigma-Aldrich) (9). Slides were observed under an inverted microscope (20× and 60× objectives)."}, "mucin2 [2]": {"system": "mucin2", "assay": "Mucin2 fluorescent staining of jejunal sections, rat SAO model", "type": "in vivo", "conditions": "SAO 30 min, lumenal injection 30 min prior", "protocol": "as §1, §2\n(§4) ATP-MgCl2 groups: ATP-MgCl2 (Sigma-Aldrich), 25 mg/kg BW was injected in the lumen of the intestine 30 min prior to SHAM or SAO surgery (SHAM+ATP, SAO+ATP).\n(§5) pH groups: Acidic saline (pH 5.5) injected in the lumen of the intestine 30 min prior SHAM surgery or HEPES buffer (20 mM) injected into the lumen of the intestine 30 min prior to SHAM or SAO surgery.\n(§6) Free radicals groups: The hydroxyl radical scavenger, dimethylthiourea (DMTU, Sigma-Aldrich; 2.0 mg/g BW) was injected in the lumen of the intestine 30 min prior to SAO (SAO+DMTU).\nas §3\n(§7) Mucin and lectin staining: The simultaneous visualization of lectins and mucin was carried out using Lectin GS-II from Griffonia simplicifolia, Alexa Fluor® 594 Conjugate (EnzChek®, Invitrogen, Carlsbad, Calif.) and specific antibody for mucin2 with FITC secondary antibody 1:10000 (Santa Cruz Biotechnology) and nuclei counterstaining with DAPI. Sections were observed on an inverted microscope (20× objective) using the appropriate fluorescent filters."}, "[3]": {"system": "lectin staining (carbohydrate portion of mucin)", "assay": "Lectin fluorescent staining (carbohydrate portion of mucin) of jejunal sections, rat SAO model", "type": "in vivo", "conditions": "SAO 30 min; lumenal injection 30 min prior", "protocol": "as §1, §2, §4, §5, §6, §3, §7"}, "mucin2 [4]": {"system": "mucin2", "assay": "Western blot for mucin2 of intestine homogenates, rat SAO model", "type": "in vivo", "conditions": "SAO 30 min, lumenal injection 30 min prior", "protocol": "as §1, §2, §4, §5, §6\n(§8) Homogenates of intestine and lumenal contents: Jejunal segments were excised without removal of lumenal contents. For enzyme activity measurements, segments of intestine were homogenized with CelLytic™ (Sigma-Aldrich) without addition of protease inhibitors. For Western blot assays the intestine segments were homogenized as above in the presence of protease inhibitors (5 mM EDTA, 5 mM N-Ethylmaleimide, 25 mM iodoacetamide, 5 mM benzamidine, 300 mM acarbose, 5 mM 6-aminocaproic acid, 1 mM protease inhibitor cocktail, (Sigma-Aldrich). In separate experiments the small intestine of sham animals was excised, and the lumenal contents were flushed with 20 ml saline. Homogenates or lumenal contents were centrifuged (16,000 g for 15 min at 4° C.), the supernatant was collected and protein concentration was assessed with the bicinchoninic acid protein assay (Thermo Scientific).\n(§9) Western blot: 20 μg of tissue homogenate were separated by SDS-PAGE. Membranes were incubated with primary antibodies as follows: mucin2, mucin13 and trypsin 1:1000 (Santa Cruz Biotechnology), pancreatic amylase 1:1000 (GeneTex, San Antonio, Tex.), intra- and extra-cellular domains of E-cadherin and TLR4 1:1000 (Abcam), intracellular domain of TLR4 1:1000 (Invitrogen). Secondary antibodies were diluted 1:20000 (Santa Cruz Biotechnology) and detected with Super Signal West Pico (Thermo Scientific). The exposed x-ray films were scanned and label intensity was measured using digital gel analysis (NIH ImageJ software)."}, "mucin13": {"system": "mucin13", "assay": "Western blot for mucin13 of intestine homogenates, rat SAO model", "type": "in vivo", "conditions": "SAO 30 min, lumenal injection 30 min prior", "protocol": "as §1, §2, §4, §5, §6, §8, §9"}, "intestinal villi hypoxia": {"system": "intestinal villi hypoxia", "assay": "Hypoxia staining (pimonidazole, Hypoxyprobe-1) of intestinal villi, rat SAO model", "type": "in vivo", "conditions": "SAO 30 min; lumenal injection 30 min prior", "protocol": "as §1, §2, §4, §5, §6\nHypoxia staining: In separate experiments tissue hypoxia was detected with Hypoxyprobe™-1 Kit (Natural Pharmacia International, Burlington, Mass., USA). This method utilizes a small molecular marker, pimonidazole, which after intravenous injection forms adducts with thiol containing proteins only in oxygen-starved cells. After general anesthesia as described above, pimonidazole-HCl (6 mg/100 g) was injected intravenously 30 min before SAO or SHAM; at 30 min the animal was euthanized and the jejuna section removed, embedded in O.C.T and frozen in liquid nitrogen. Then cryosections were immunostained using a rabbit antibody that binds to protein adducts of pimonidazole in hypoxic cells."}, "[5]": {"system": "ATP concentration in intestine homogenates", "assay": "ATP assay in intestine homogenates, rat SAO model", "type": "in vivo", "conditions": "lumenal injection 30 min prior", "protocol": "as §1, §2, §4, §5, §6\nATP assay: ATP concentrations in intestine homogenates were measured using ATP fluorometirc assay kit (BioVision, Mountain View, Calif.) according to manufacturer's protocol. Briefly jejuna sections were homogenized with perchloric acid (BioVision), centrifuged at 15,000×G for 5 min at 4° C. Samples were mixed with ATP reaction mix, incubated for 30 min protected from light and the fluorescence was measured with 535/587 (Ex/Em)."}, "[6]": {"system": "MDA equivalents (TBARS) in jejunal homogenates", "assay": "Thiobarbituric Acid Reactive Substances (TBARS) assay, rat SAO model", "type": "in vivo", "conditions": "SAO 30 min; lumenal injection 30 min prior", "protocol": "as §1, §2, §4\npH groups: Acidic saline (pH 5.5) injected in the lumen of the intestine 30 min prior SHAM surgery or HEPES buffer (20 mM) injected into the lumen of the intestine 30 min prior to SHAM or SAO surgery. […]\nTBARS assay: Thiobarbituric Acid Reactive Substances (TBARS) was measured using the TBARS assay kit (Zeptometrix, Buffalo, N.Y.) according to manufacturer's protocol. […] Samples were centrifuged at 3000 rpm for 15 min and the supernatant were read at 530/550 (Ex/Em)."}, "shock": {"system": "shock", "conditions": "ATP infusion before and during shock, given prior to hemorrhage; cited from earlier work"}}, "data": [{"substance": "ATP-MgCl2", "values": [{"measurement": "trypsin activity in the intestinal wall", "setting": "[1]; SAO 30 min", "value": "Low levels of trypsin activity"}, {"measurement": "trypsin activity in the intestinal wall", "setting": "[1]; SAO 30 min, listed as ATP", "value": "less trypsin activity in the wall as compared to the ischemic group with only lumenal saline"}, {"measurement": "trypsin activity in the intestinal wall", "setting": "[1]; SHAM surgery", "value": "minimal trypsin activity"}, {"measurement": "mucin2 staining levels", "setting": "mucin2 [2]", "value": "significantly lower as compared to the SHAM group with saline but was not statistically different from SHAM-ATP-MgCl2"}, {"measurement": "mucin2 staining levels", "setting": "mucin2 [2]; listed as ATP", "value": "preservation of mucin2 staining"}, {"measurement": "lectin staining levels", "setting": "[3]", "value": "significantly lower as compared to the SHAM and SHAM-ATP-MgCl2"}, {"measurement": "mucin2 protein levels (relative density, Western blot)", "setting": "mucin2 [4]", "value": "the same mucin2 and mucin13 protein levels as the sham"}, {"measurement": "mucin2 protein levels (relative density, Western blot)", "setting": "mucin2 [4]; listed as ATP", "value": "preservation of mucin2 staining as well as protein levels of mucin2 and mucin13"}, {"measurement": "mucin13 protein levels / 17 kDa fragment (Western blot)", "setting": "mucin13", "value": "the same mucin2 and mucin13 protein levels as the sham"}, {"measurement": "mucin13 protein levels / 17 kDa fragment (Western blot)", "setting": "mucin13; listed as ATP", "value": "preservation of mucin2 staining as well as protein levels of mucin2 and mucin13"}, {"measurement": "hypoxia staining levels", "setting": "intestinal villi hypoxia", "value": "significantly high levels of hypoxia staining as compared to SHAM groups"}, {"measurement": "ATP concentration in intestinal tissue homogenates", "setting": "[5]; SAO 30 min", "value": "significantly increased the ATP concentration"}, {"measurement": "ATP concentration in intestinal tissue homogenates", "setting": "[5]; SHAM surgery", "value": "significantly increased the ATP concentration"}, {"measurement": "levels of MDA equivalents (TBARS)", "setting": "[6]", "value": "on average lower levels of MDA equivalents compared to SHAM or SAO, but they were not significant"}, {"measurement": "survival of animals", "setting": "shock", "value": "improves the survival of animals"}]}]}
